Results from article PMC8040968, “Identification of small molecule allosteric modulators of 5,10-methylenetetrahydrofolate reductase (MTHFR) by targeting its unique regulatory domain” (Biochimie, 2021).
Values joined by “and” are separate entries in the source; they are usually repeats but may differ in a detail not shown here. Equal entries are not always repeated. Where two headings read alike, the source gives them in different places. Blank lines part the entries; values can stand above or below the compound they belong to.

Key:
hsMTHFRCD-RD [1] = target: T1, hsMTHFRCD-RD (Homo sapiens, UniProt P42898); experiment: MIDAS protein-metabolite interactomics (equilibrium dialysis FIA-MS), CD-RD construct; format: binding; conditions: Fig. 2B
T1 construct: encompassing just the CD and RD (amino acids 38–644; hsMTHFRCD-RD); made in house
T1 sequence (P42898 38-644): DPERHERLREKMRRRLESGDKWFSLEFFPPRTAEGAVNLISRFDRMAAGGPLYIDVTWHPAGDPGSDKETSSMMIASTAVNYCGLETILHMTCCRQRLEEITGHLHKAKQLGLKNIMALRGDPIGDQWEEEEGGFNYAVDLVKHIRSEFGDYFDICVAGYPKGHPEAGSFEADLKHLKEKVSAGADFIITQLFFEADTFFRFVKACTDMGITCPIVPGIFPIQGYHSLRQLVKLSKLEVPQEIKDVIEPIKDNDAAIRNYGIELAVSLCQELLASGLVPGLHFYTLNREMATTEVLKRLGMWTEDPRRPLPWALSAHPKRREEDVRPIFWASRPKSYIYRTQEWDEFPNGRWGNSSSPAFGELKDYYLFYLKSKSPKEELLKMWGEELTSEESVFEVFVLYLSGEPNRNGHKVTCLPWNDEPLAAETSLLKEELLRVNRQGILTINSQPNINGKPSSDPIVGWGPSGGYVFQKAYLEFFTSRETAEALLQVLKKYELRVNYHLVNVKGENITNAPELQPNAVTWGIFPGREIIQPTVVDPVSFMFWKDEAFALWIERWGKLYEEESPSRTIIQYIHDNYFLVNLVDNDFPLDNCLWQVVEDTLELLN
Description: (§1) Protein–metabolite interactomics using an updated MIDAS screening platform was performed as reported previously. Briefly, a flow-injection analysis mass-spectrometry (FIA-MS) method utilising a validated library of 400 metabolite standards was combined into four unique and defined screening pools in 150 mM ammonium acetate pH 7.4. For each metabolite pool, 8 μl of hsMTHFRCD-RD (542 μM) or hsMTHFRRD (240 μM) protein was arrayed in triplicate across a SWISSCI 10 MWC 96-well microdialysis plate (protein chambers). To the trans side of each dialysis well, 300 μl of a metabolite pool (50 μM per metabolite) was arrayed in triplicate for each target protein (metabolite chambers). Dialysis plates were placed in the dark at 4 °C on a rotating shaker (150 rev min−1) and incubated for 40 h. Post-dialysis, protein- and metabolite-chamber dialysates were normalized and diluted 1:10 in 80% methanol, incubated for 30 min on ice, and centrifuged at 3200 RCF for 15 min to remove precipitated protein. Metabolite pool analytes were arrayed across a 384-well microvolume plate and placed at 4 °C in a Shimadzu SIL-20ACXR autosampler for FIA-MS metabolomics analysis. 2 μl of each sample was analysed in technical triplicate by FIA-MS on a SCIEX X500R QTOF MS with interspersed injections of blanks.
FIA-MS spectra from MIDAS protein–metabolite interactomics was qualitatively and quantitatively processed in SCIEX OS 1.6 software to determine relative metabolite abundance by integrating the mean area under the extracted-ion chromatogram curve across technical triplicates. Log2 (fold change) for each metabolite was calculated from the relative metabolite abundance in the protein chamber (numerator) and metabolite chamber (denominator) from dialysis triplicates. For each technical triplicate, up to one outlier was removed using a z-score cutoff of five (<0.1% of observations). The corrected technical replicates were collapsed to one mean fold-change summary per protein–metabolite pair. To remove fold-change variation that was not specific to a given metabolite–protein pair, the first three principal components of the total MIDAS dataset were removed (∼75% of observed variance) creating Log2 (corrected fold change). Protein–metabolite z-scores were determined by comparing the target protein–metabolite Log2 (corrected fold change) to a no-signal model for that metabolite using measures of the central tendency (median) and standard deviation (extrapolated from the 25–75% quantiles) which are not biased by the signals in the tails of a metabolite’s fold-change distribution. Z-scores were controlled for false-discovery rate using Storey’s q value (http://github.com/jdstorey/qvalue). Protein–metabolite interactions with p-values < 0.05 and q-values < 0.1 were considered significant.

hsMTHFRRD [2] = target: T2, hsMTHFRRD (Homo sapiens, UniProt P42898); experiment: Differential scanning fluorimetry binding assay; conditions: up to 250 μM compound, 0.1 mg ml^−1 hsMTHFRRD
T2 construct: encompassing the RD and part of the linker region (amino acids 348–656; hsMTHFRRD); made in house
T2 sequence (P42898 348-656): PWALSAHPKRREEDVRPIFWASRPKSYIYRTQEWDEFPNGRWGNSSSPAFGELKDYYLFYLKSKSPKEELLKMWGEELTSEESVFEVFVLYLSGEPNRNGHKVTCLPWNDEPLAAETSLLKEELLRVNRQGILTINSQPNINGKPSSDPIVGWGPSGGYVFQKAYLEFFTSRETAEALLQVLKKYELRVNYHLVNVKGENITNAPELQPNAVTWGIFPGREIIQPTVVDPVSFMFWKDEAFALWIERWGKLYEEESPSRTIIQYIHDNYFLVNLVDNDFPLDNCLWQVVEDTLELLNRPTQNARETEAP
Description: Differential scanning fluorimetry was used to assay shifts in melting temperature caused by ligand binding in a 96-well PCR plate using an LC480 light cyler (Roche). Each well (20 μl) consisted of hsMTHFRRD protein (0.1 mg ml^−1), SYPRO-Orange (Invitrogen) diluted 1000X, and buffer (10 mM HEPES pH 7.5, 500 mM NaCl) in the presence of 0–250 μM AdoMet, AdoHcy or analogue compounds. Analogue compounds were part of a AdoMet library consisting of 162 synthetic analogues of adenosine scaffolds which were compiled from the SGC’s compound collection.

[3] = set-up: method as in PMID 31657716; conditions: cited from earlier work
hsMTHFRFL = target: T3, hsMTHFRFL (Homo sapiens, UniProt P42898); experiment: MTHFR enzyme activity assay (physiological forward assay), purified enzyme; format: biochemical; conditions: for Ki: four-parameter curve fit, n = 3
T3 construct: encompassing the full-length (amino acids 1–656; hsMTHFRFL); made in house
T3 sequence (P42898 whole entry, the tested form may be a part): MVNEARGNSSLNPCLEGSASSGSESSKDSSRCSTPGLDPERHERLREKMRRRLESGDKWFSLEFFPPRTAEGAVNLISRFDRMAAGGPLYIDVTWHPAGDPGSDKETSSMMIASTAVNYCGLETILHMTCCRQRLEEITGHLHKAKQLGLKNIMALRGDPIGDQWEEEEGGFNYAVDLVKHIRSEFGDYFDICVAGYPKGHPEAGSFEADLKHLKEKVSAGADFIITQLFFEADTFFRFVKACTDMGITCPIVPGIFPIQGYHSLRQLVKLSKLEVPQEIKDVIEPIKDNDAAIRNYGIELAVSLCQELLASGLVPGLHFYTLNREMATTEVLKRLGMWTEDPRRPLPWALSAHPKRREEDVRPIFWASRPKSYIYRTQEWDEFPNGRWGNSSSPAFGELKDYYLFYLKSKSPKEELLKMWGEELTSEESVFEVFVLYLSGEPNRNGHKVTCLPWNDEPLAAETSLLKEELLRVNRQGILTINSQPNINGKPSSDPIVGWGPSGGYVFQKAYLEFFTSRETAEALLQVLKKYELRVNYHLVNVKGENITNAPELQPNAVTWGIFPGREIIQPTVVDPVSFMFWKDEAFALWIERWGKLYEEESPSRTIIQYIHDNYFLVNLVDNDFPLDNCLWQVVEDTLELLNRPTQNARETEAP
Description: (§2) All enzymatic assays were performed using the physiological forward assay described by Suormala et al.. For (S)-SKI-72 inhibition in […] (ATCC: CRL-3216) cell lysates, the assay was performed with the modifications described by Rummel et al. and Burda et al.. For (S)-SKI-73 inhibition of intact HEK293 cells, 300,000 cells/well of a 6-well plate were allowed to settle overnight. The next day, media containing Dulbecco’s Modified Eagle Medium (Gibco) supplemented with 10% fetal bovine serum (Gibco) and 1% antibiotic/antimycotic (Gibco) was exchanged to fresh media of the same composition plus the indicated concentration of (S)-SKI-73. Following incubation for 12 or 48 h, cells were harvested, lysed and assayed as previously described. Assay of hsMTHFRFL was performed as described. Purified AdoMet was used for inhibition. Sinefungin was purchased from Sigma-Aldrich (Cat# S8559). The Ki for each compound was estimated following a plot of inhibitor versus response and a four-parameter curve fit as performed by GraphPad Prism (v8.00).

[4] = target: T4, endogenous MTHFR from HEK293 cell lysate (Homo sapiens, UniProt P42898); experiment: MTHFR enzyme activity assay in HEK293 cell lysate; format: biochemical; conditions: for Ki: n = 3
T4 construct: Remaining activity of endogenous MTHFR from HEK293 cell lysate; host or cells: HEK293
T4 sequence (P42898 whole entry): as the sequence (P42898 whole entry, the tested form may be a part) above
Description: as §2

hsMTHFRRD [5] = target: T2, hsMTHFRRD; experiment: Surface plasmon resonance, regulatory domain; format: binding; conditions: SPR, steady state affinity fit, read-out: Kd (dissociation constant)
Description: (§3) For determination of the affinity between hsMTHFRCD-RD and (S)-SKI-72, 30 μg of hsMTHFRCD-RD was immobilized onto Sensor Chip CM5 sensor (series S) to a density of 7500 RU via the protein –NH2 groups employing 1-Ethyl-3-(3-dimethylaminoproppyl)carbodiimide crosslinker (EDC) and N-hydroxysuccinimide (NHS) in acetate buffer pH 4.0. For the binding experiment, (S)-SKI-72 was serially diluted (1:1) from 6.25 μM to 0.05 μM in 20 mM HEPES pH 7.5, 150 mM NaCl, 0.5 mM TCEP, 0.05% TWEEN-20, 5% DMSO and subsequently injected at a 30 μL/min flow rate over the sensor. […] For the binding experiment, (S)-SKI-72 was serially diluted from 12.5 μM to 0.012 μM and AdoMet was serially diluted from 25 μM to 0.19 μM and subsequently injected at a 30 μL/min flow rate over the sensor. Data were analysed using the Biacore S200 Evaluation Software.

hsMTHFRCD-RD [6] = target: T1, hsMTHFRCD-RD; experiment: Surface plasmon resonance, CD-RD construct; format: binding; conditions: SPR, read-out: Kd (dissociation constant)
Description: as §3

hsMTHFRRD [7] = target: T2, hsMTHFRRD; experiment: MIDAS protein-metabolite interactomics (equilibrium dialysis FIA-MS), regulatory domain alone; format: binding; conditions: Fig. 2C
Description: as §1, with “Post-dialysis, protein- and metabolite-chamber dialysates were normalized and diluted 1:10 in 80% methanol, incubated for 30 min on ice, and centrifuged at 3200 RCF for 15 min to remove precipitated protein. Metabolite pool analytes were arrayed across a 384-well microvolume plate and placed at 4 °C in a Shimadzu SIL-20ACXR autosampler for FIA-MS metabolomics analysis.” left out
FIA-MS spectra from MIDAS protein–metabolite interactomics was qualitatively and quantitatively processed in SCIEX OS 1.6 software to determine relative metabolite abundance by integrating the mean area under the extracted-ion chromatogram curve across technical triplicates. Log2 (fold change) for each metabolite was calculated from the relative metabolite abundance in the protein chamber (numerator) and metabolite chamber (denominator) from dialysis triplicates. […]

Structure (SMILES): COc1ccc(CCNC(=O)[C@@H](N)CC[C@H](CNCc2ccccc2)C[C@H]2O[C@@H](n3cnc4c(N)ncnc43)[C@H](O)[C@@H]2O)cc1 [(S)-SKI-72]
Tm shift (hsMTHFRRD [2]): approximately 10 °C | membrane permeability [3]: poor | residual activity at high concentrations (hsMTHFRFL; purified hsMTHFRFL, even at high concentrations): ~30% | Ki (hsMTHFRFL; purified hsMTHFRFL): 780 ± 50 nM | residual activity at the highest concentrations tested [4]: approximately 50% | Ki [4]: 3000 ± 200 nM | Kd (hsMTHFRRD [5]): 1470 nM and 1170 nM and 1500 nM | Kd (hsMTHFRCD-RD [6]; as printed in Fig. 3A): 600 nM | Kd (hsMTHFRCD-RD [6]; steady state affinity fit): 612 nM and 596 nM

Structure (SMILES): Nc1nc2c(c(=O)[nH]1)N(C=O)C(CNc1ccc(C(=O)N[C@@H](CCC(=O)O)C(=O)O)cc1)CN2 (stereo partly shown) [5-FTHF, 5-formyltetrahydrofolate]
MIDAS enrichment or depletion of metabolite (hsMTHFRCD-RD [1]): enriched

Structure (SMILES): Nc1nc(=O)c2nc(CNc3ccc(C(=O)N[C@@H](CCC(=O)O)C(=O)O)cc3)cnc2[nH]1 [folate]
MIDAS enrichment or depletion of metabolite (hsMTHFRCD-RD [1]): enriched

Structure (SMILES): CN1c2c(nc(N)[nH]c2=O)NCC1CNc1ccc(C(=O)N[C@@H](CCC(=O)O)C(=O)O)cc1 (stereo partly shown) [5-MTHF, 5-methyltetrahydrofolate]
MIDAS enrichment or depletion of metabolite (hsMTHFRCD-RD [1]): depleted

Structure (SMILES): C[S+](CC[C@H](N)C(=O)[O-])C[C@H]1O[C@@H](n2cnc3c(N)ncnc32)[C@H](O)[C@@H]1O (stereo partly shown) [AdoMet, S-adenosylmethionine]
Tm shift (hsMTHFRRD [2]): approximately 4 °C | Ki (hsMTHFRFL; purified hsMTHFRFL): 5800 ± 200 nM | Ki [4]: 8200 nM and 6800 nM | MIDAS enrichment or depletion of metabolite (hsMTHFRRD [7]): enriched | MIDAS enrichment or depletion of metabolite (hsMTHFRCD-RD [1]): enriched | Kd (hsMTHFRRD [5]): 4300 nM and 1060 nM

The remaining lines, values ahead:

MIDAS enrichment or depletion of metabolite (hsMTHFRCD-RD [1]): depleted
Structure (SMILES): NC(=O)C1=CN([C@@H]2O[C@H](COP(=O)(O)OP(=O)(O)OC[C@H]3O[C@@H](n4cnc5c(N)ncnc54)[C@H](O)[C@@H]3O)[C@@H](O)[C@H]2O)C=CC1 [NADH]

MIDAS enrichment or depletion of metabolite (hsMTHFRCD-RD [1]): enriched
Structure (SMILES): Cc1cc2nc3c(=O)[nH]c(=O)nc-3n(C[C@H](O)[C@H](O)[C@H](O)COP(=O)(O)OP(=O)(O)OC[C@H]3O[C@@H](n4cnc5c(N)ncnc54)[C@H](O)[C@@H]3O)c2cc1C [FAD, flavin adenine dinucleotide]

Tm shift (hsMTHFRRD [2]): ~7 °C | MIDAS enrichment or depletion of metabolite (hsMTHFRRD [7]): enriched | MIDAS enrichment or depletion of metabolite (hsMTHFRCD-RD [1]): enriched
Structure (SMILES): Nc1ncnc2c1ncn2[C@@H]1O[C@H](CSCC[C@H](N)C(=O)O)[C@@H](O)[C@H]1O [AdoHcy, S-adenosylhomocysteine]

effect on the activity of hsMTHFRFL (hsMTHFRFL; concentrations up to ∼100 μM, above that appeared to inhibit): no effect
Structure (SMILES): Nc1ncnc2c1ncn2[C@@H]1O[C@H](C[C@@H](N)CC[C@H](N)C(=O)O)[C@@H](O)[C@H]1O [Sinefungin, sinefungin]

MIDAS enrichment or depletion of metabolite (hsMTHFRCD-RD [1]): depleted
Structure (SMILES): NC(=O)C1=CN([C@@H]2O[C@H](COP(=O)(O)OP(=O)(O)OC[C@H]3O[C@@H](n4cnc5c(N)ncnc54)[C@H](OP(=O)(O)O)[C@@H]3O)[C@@H](O)[C@H]2O)C=CC1 [NADPH]
